Where two headings read alike, the source gives them in different places.
Legend:
[1] = Stability of ivermectin in various solvent oils; type: physicochemical; details: 40° C., T 1 month, 1% ivermectin
Experimental: The preparations are prepared according to the following proportions: 1% of ivermectin, a sufficient amount of solvent oil to obtain 100%.
(§1) Assay technique by HPLC against reference substance.

[2] = T 3 months, 4% hydroquinone
Experimental: The preparations are prepared according to the following proportions: 4% of hydroquinone, a sufficient amount of solvent oil to obtain 100%.
as §1

[3] = Stability of calcitriol in various solvent oils; type: physicochemical; details: RT
Experimental: In order to optimize the dissolution of the active agent to be incorporated into the compositions according to the invention, stability tests are performed in various solvent oils: The preparations are prepared according to the following proportions: 0.00666% of calcitriol/0.29629% of BHT, a sufficient amount of solvent oil to obtain 100%. Assay technique by HPLC against reference substance.

[4] = Stability of rucinol in various solvent oils; type: physicochemical; details: 40° C., T 1 month, 5% rucinol
Experimental: The preparations are prepared according to the following proportions: 5% of rucinol, a sufficient amount of solvent oil to obtain 100%.
as §1

## ivermectin
[1]; solvent PPG-15 stearyl ether
  % Ivermectin/To: 98.07%
[1]; solvent benzyl alcohol
  % Ivermectin/To: 98.6%
[1]; solvent diisopropyl adipate
  % Ivermectin/To: 96.7%
[1]; solvent phenoxyethanol
  % Ivermectin/To: 98.6%

## Oc1ccc(O)cc1 [Hydroquinone, hydroquinone]
[2]; solvent PPG-15 stearyl ether, 40° C.
  % Hydroquinone/To: 96.00%
[2]; solvent caprylic/capric triglycerides, 40° C.
  % Hydroquinone/To: 95.00%
[2]; solvent diisopropyl adipate, temperature not given
  % Hydroquinone/To: 97.4%

## C=C1/C(=C\C=C2/CCC[C@]3(C)[C@@H]([C@H](C)CCCC(C)(C)O)CC[C@@H]23)C[C@@H](O)C[C@@H]1O [Calcitriol, calcitriol]
[3]; solvent PPG-15 stearyl ether, T 1 month
  % Calcitriol/To: 100.00%
[3]; solvent caprylic/capric triglycerides, T 1 month, 0.00666% calcitriol, 0.29629% BHT
  % Calcitriol/To: 100.3%
[3]; solvent caprylic/capric triglycerides, T 3 months
  % Calcitriol/To: 99.9%
[3]; solvent diisopropyl adipate, T 1 month
  % Calcitriol/To: 101.5%
[3]; solvent diisopropyl adipate, T 3 months
  % Calcitriol/To: 97.2%
[3]; solvent octyldodecanol, T 1 month
  % Calcitriol/To: 98.3%
[3]; solvent octyldodecanol, T 3 months
  % Calcitriol/To: 95.00%

## CCCCc1ccc(O)cc1O [Rucinol, rucinol]
[4]; solvent PEG-8 caprylic/capric triglycerides
  % Rucinol (% LC): 100 % LC
[4]; solvent PEG-35 castor oil
  % Rucinol (% LC): 96 % LC
[4]; solvent PPG-15 stearyl ether
  % Rucinol (% LC): 95 % LC
[4]; solvent caprylic/capric triglycerides
  % Rucinol (% LC): 99 % LC

Source: patent US20120004200A1, “TOPICAL PHARMACEUTICAL COMPOSITION CONTAINING A WATER-SENSITIVE ACTIVE PRINCIPLE” (GALDERMA S.A., priority 2008, published 2012)
